Activity calls are given as the source filed them. The rule behind the calls is not given here.
Tests used:
[1] = system: NCI-H3122; test: Inhibition of EML4-ALK phosphorylation in human NCI-H3122 cells at 2.5 uM incubated for 48 hrs followed by compound removal and incubation in drug-free medium for 12 to 72 hrs by immunoblot analysis; format: cell-based
[2] = system: NCI-H1975; test: Inhibition of cell viability in human NCI-H1975 cells incubated for 48 to 72 hrs by CCK8 assay
[3] = system: NCI-H3122; test: Inhibition of cell viability in human NCI-H3122 cells incubated for 48 to 72 hrs by CCK8 assay
[4] = system: Glucose-induced degradation protein 4 homolog/Epidermal growth factor receptor (Homo sapiens), P00533+Q8IVV7 [L858R,T790M]; test: Inhibition of EGFR L858R/T790M mutant phosphorylation in human NCI-H1975 cells at 20 uM incubated for 72 hrs followed by compound removal and incubation in drug-free medium for 12 to 72 hrs by immunoblot analysis; format: cell-based
[5] = system: NCI-H3122; test: Effect on EML4-ALK expression in human NCI-H3122 cells upto 20 uM incubated for 72 hrs by immunoblot analysis; format: functional, cell-based
[6] = system: Epidermal growth factor receptor (Homo sapiens), P00533 [L858R,T790M]; test: Induction of EGFR L858R/T790M mutant degradation in human NCI-H1975 cells harboring sgGID4 at 1 to 20 uM incubated for 24 hrs by immunoblot analysis; format: cell-based; settings: dose 1-20 µM
[7] = system: Epidermal growth factor receptor (Homo sapiens), P00533 [L858R,T790M]; test: Inhibition of EGFR L858R/T790M mutant phosphorylation in human NCI-H1975 cells harboring sgGID4 at 1 to 20 uM incubated for 24 hrs by immunoblot analysis; format: cell-based; settings: dose 1-20 µM
[8] = biological target: T1, UBR/ALK tyrosine kinase receptor/Echinoderm microtubule-associated protein-like 4 (Homo sapiens) (UniProt Q9UM73+Q9HC35+Q5T4S7+Q8IWV7+Q8IWV8); test: PROTAC (AATac) activity at UBR1/2/4/EML4-ALK in human NCI-H3122 cells assessed as protein degradation at 10 uM incubated for approximately 3 hrs by immunoblot analysis; format: cell-based
[9] = system: UBR/Epidermal growth factor receptor (Homo sapiens), P00533+Q5T4S7+Q8IWV7+Q8IWV8 [L858R,T790M]; test: PROTAC (AATac) activity at UBR1/2/4/EGFR L858R/T790M mutant in human NCI-H1975 cells assessed as protein degradation at 20 uM incubated for 48 to 72 hrs by immunoblot analysis relative to control; format: cell-based; settings: time 48-72 hrs
[10] = biological target: T1, UBR/ALK tyrosine kinase receptor/Echinoderm microtubule-associated protein-like 4 (Homo sapiens); test: PROTAC (AATac) activity at UBR1/2/4/EML4-ALK in human NCI-H3122 cells assessed as protein degradation upto 20 uM incubated for 72 hrs by immunoblot analysis; format: cell-based
[11] = system: A549; test: Effect on wild-type EGFR expression in human A549 cells upto 20 uM incubated for 72 hrs by immunoblot analysis; format: functional, cell-based
[12] = system: PC-9; test: Effect on EGFR del19 mutant expression in human PC-9 cells upto 20 uM incubated for 72 hrs by immunoblot analysis; format: functional, cell-based
[13] = biological target: UBR/ALK tyrosine kinase receptor/Echinoderm microtubule-associated protein-like 4; test: PROTAC (AATac) activity at UBR1/2/4/EML4-ALK in human NCI-H3122 cells assessed as protein degradation incubated for 48 to 72 hrs by immunoblot analysis; format: cell-based
[14] = system: UBR/Epidermal growth factor receptor (Homo sapiens), P00533+Q5T4S7+Q8IWV7+Q8IWV8 [L858R,T790M]; test: PROTAC (AATac) activity at UBR1/2/4/EGFR L858R/T790M mutant in human NCI-H1975 cells assessed as protein degradation at 20 uM incubated for 48 hrs by immunoblot analysis; format: cell-based
[15] = biological target: UBR/Epidermal growth factor receptor (Homo sapiens, UniProt P00533+Q5T4S7+Q8IWV7+Q8IWV8, T790M/L858R); test: PROTAC (AATac) activity at UBR1/2/4/EGFR L858R/T790M mutant in human NCI-H1975 cells assessed as protein degradation incubated for 48 to 72 hrs by immunoblot analysis; format: cell-based
[16] = system: NCI-H1299; test: Effect on wild-type EGFR expression in human NCI-H1299 cells upto 20 uM incubated for 72 hrs by immunoblot analysis; format: functional, cell-based
[17] = system: UBR/Epidermal growth factor receptor (Homo sapiens), P00533+Q5T4S7+Q8IWV7+Q8IWV8 [L858R,T790M]; test: PROTAC (AATac) activity at UBR1/2/4/EGFR L858R/T790M mutant in human NCI-H1975 cells assessed as protein degradation upto 20 uM incubated for 72 hrs by immunoblot analysis; format: cell-based
[18] = biological target: T1, UBR/ALK tyrosine kinase receptor/Echinoderm microtubule-associated protein-like 4 (Homo sapiens); test: PROTAC (AATac) activity at UBR1/2/4/EML4-ALK in human NCI-H3122 cells assessed as protein degradation at 10 uM incubated for 48 to 72 hrs by immunoblot analysis relative to control; format: cell-based; settings: time 48-72 hrs
[19] = biological target: T2, ZYG11B/ZER1/EML4-ALK (Homo sapiens, UniProt Q9UM73+Q9HC35+Q9C0D3+Q7Z7L7); test: PROTAC (AATac) activity at ZYG11B/ZER1/EML4-ALK in human NCI-H3122 cells harboring shZER1 assessed as protein degradation incubated for 24 hrs by immunoblot analysis; format: cell-based
[20] = system: Protein zyg-11 homolog B/Protein zer-1 homolog/Epidermal growth factor receptor (Homo sapiens), P00533+Q9C0D3+Q7Z7L7 [L858R,T790M]; test: PROTAC (AATac) activity at ZYG11B/ZER1/EGFR L858R/T790M mutant in human NCI-H1975 cells assessed as protein degradation at 20 uM incubated for 48 to 72 hrs by immunoblot analysis relative to control; format: cell-based; settings: time 48-72 hrs
[21] = biological target: T2, ZYG11B/ZER1/EML4-ALK; test: PROTAC (AATac) activity at ZYG11B/ZER1/EML4-ALK in human NCI-H3122 cells harboring shZYG11B assessed as protein degradation incubated for 24 hrs by immunoblot analysis; format: cell-based
[22] = system: Protein zyg-11 homolog B/Protein zer-1 homolog/Epidermal growth factor receptor (Homo sapiens), P00533+Q9C0D3+Q7Z7L7 [L858R,T790M]; test: PROTAC (AATac) activity at ZYG11B/ZER1/EGFR L858R/T790M mutant in human NCI-H1975 cells harboring shZER1 assessed as protein degradation incubated for 72 hrs by immunoblot analysis; format: cell-based
[23] = biological target: T2, ZYG11B/ZER1/EML4-ALK; test: PROTAC (AATac) activity at ZYG11B/ZER1/EML4-ALK in human NCI-H3122 cells assessed as protein degradation at 10 uM incubated for […] by immunoblot analysis; format: cell-based
[24] = system: Protein zyg-11 homolog B/Protein zer-1 homolog/Epidermal growth factor receptor (Homo sapiens), P00533+Q9C0D3+Q7Z7L7 [L858R,T790M]; test: PROTAC (AATac) activity at ZYG11B/ZER1/EGFR L858R/T790M mutant in human NCI-H1975 cells assessed as protein degradation at 20 uM incubated for 24 hrs by immunoblot analysis; format: cell-based
[25] = biological target: T2, ZYG11B/ZER1/EML4-ALK; test: PROTAC (AATac) activity at ZYG11B/ZER1/EML4-ALK in human NCI-H3122 cells assessed as protein degradation at 10 uM incubated for 48 to 72 hrs by immunoblot analysis relative to control; format: cell-based; settings: time 48-72 hrs
[26] = biological target: T2, ZYG11B/ZER1/EML4-ALK; test: PROTAC (AATac) activity at ZYG11B/ZER1/EML4-ALK in human NCI-H3122 cells assessed as protein degradation incubated for 48 to 72 hrs by immunoblot analysis; format: cell-based
[27] = biological target: Protein zyg-11 homolog B/Protein zer-1 homolog/Epidermal growth factor receptor (Homo sapiens, UniProt P00533+Q9C0D3+Q7Z7L7, T790M/L858R); test: PROTAC (AATac) activity at ZYG11B/ZER1/EGFR L858R/T790M mutant in human NCI-H1975 cells assessed as protein degradation incubated for 48 to 72 hrs by immunoblot analysis; format: cell-based
[28] = system: NCI-H3122; test: Antitumor activity against human NCI-H3122 cells xenografted in nude mouse assessed as reduction in ALK level at 10 mg/kg, ip measured after 24 hrs by immunoblot analysis; format: functional, organism-based
[29] = system: Protein zyg-11 homolog B/Protein zer-1 homolog/Epidermal growth factor receptor (Homo sapiens), P00533+Q9C0D3+Q7Z7L7 [L858R,T790M]; test: PROTAC (AATac) activity at ZYG11B/ZER1/EGFR L858R/T790M mutant in human NCI-H1975 cells harboring shZYG11B assessed as protein degradation incubated for 72 hrs by immunoblot analysis; format: cell-based
[30] = system: Protein zyg-11 homolog B/Protein zer-1 homolog/Epidermal growth factor receptor (Homo sapiens), P00533+Q9C0D3+Q7Z7L7 [L858R,T790M]; test: PROTAC (AATac) activity at ZYG11B/ZER1/EGFR L858R/T790M mutant in human NCI-H1975 cells assessed as protein degradation upto 20 uM incubated for 72 hrs by immunoblot analysis; format: cell-based
[31] = biological target: T2, ZYG11B/ZER1/EML4-ALK; test: PROTAC (AATac) activity at ZYG11B/ZER1/EML4-ALK in human NCI-H3122 cells assessed as protein degradation upto 20 uM incubated for 72 hrs by immunoblot analysis; format: cell-based

With `COc1cc(N2CCNCC2)ccc1Nc1ncc(Cl)c(Nc2ccccc2P(C)(C)=O)n1` the inhibition [1] was “inactive”, the IC50 [2] was 0.88 µM and the IC50 [3] was 0.3 µM. For the same compound, the inhibition [4] was “inactive”, the Activity [5] was “inactive” and the Activity [6] was “inactive”. The Activity [7] was “inactive”.
With `COc1cc(N2CCN(C(=O)CCOCCOCCOCCNC(=O)[C@@H](N)CCCN)CC2)ccc1Nc1ncc(Cl)c(Nc2ccccc2P(C)(C)=O)n1` the Activity [5] was “inactive”.
`COc1cc(N2CCN(C(=O)CCOCCOCCOCCNC(=O)[C@@H](N)CCCCN)CC2)ccc1Nc1ncc(Cl)c(Nc2ccccc2P(C)(C)=O)n1` was tested, and the IC50 [2] was 18.6 µM, the Activity [8] was “Active” and the Activity [9] was 52%. The Activity [10] was “Active”, the IC50 [3] was 5.3 µM and the Activity [11] was “inactive”. The Activity [12] was “inactive”, the DC50 [13] was 1.32 µM and the Activity [14] was “Active”. The DC50 [15] was 19.7 µM, the Activity [16] was “inactive” and the Activity [17] was “Active”. The Emax [18] was 91%.
In the case of `COc1cc(N2CCN(C(=O)CCOCCOCCOCCNC(=O)CN)CC2)ccc1Nc1ncc(Cl)c(Nc2ccccc2P(C)(C)=O)n1`, the Activity [19] is reported as “inactive”, the Activity [20] is reported as 43% and the IC50 [2] is reported as 20.7 µM. For the same compound, the Activity [21] was “inactive”, the Activity [22] was “inactive” and the Activity [23] was “Active”. The IC50 [3] was 0.84 µM, the Activity [24] was “Active” and the Emax [25] was 98%. For the same compound, the Activity [11] was “inactive”, the Activity [12] was “inactive” and the DC50 [26] was 0.5 µM. For the same compound, the DC50 [27] was 20.1 µM, the Activity [28] was “Active” and the Activity [29] was “inactive”. The Activity [30] was “Active”, the Activity [31] was “Active” and the Activity [16] was “inactive”.
